We go through 7 compounds from patent US6417181B1, “Naphthyl-substituted and anilide-substituted sulfonamides” (Bayer Aktiengesellschaft, priority 1998, dated 2002).

Test system in the first data set: not given
Assay: not given
Settings: not given
As a reminder, the melting point is the temperature, or range, at which the solid turns liquid. For `CNc1ccc(S(=O)(=O)Nc2ccc(NC(=O)C(C)(C)C)cc2)c2ccccc12`, the melting point was 248 °C (dec.).
Consider `CC(=O)Nc1ccc(S(=O)(=O)Nc2ccc(NC(=O)C(C)(C)C)cc2)c2ccccc12`, for which the melting point is greater than 240 °C.
The same measure, in the same setting: then `CC(C)(C)C(=O)Nc1ccc(NS(=O)(=O)c2ccc(N)c3ccccc23)cc1`, with 216 °C.

Another data set deals with human cytomegalovirus (HCMV). The data set can be described thus: anti-HCMV screening test: spread of the cytopathogenic effect in HELF cell cultures, 96-well microtitre plates. In kind it is cell-based. The note with it: Human betaherpesvirus 5; HCMV-infected HELF cells, CPE, Neutral Red staining. On the procedure: The anti-HCMV action was determined in a screening test system in 96-well microtitre plates with the aid of human embryonic lung fibroblast (HELF) cell cultures. The effect of the substances on the spread of the cytopathogenic effect was determined in comparison with the reference substance ganciclovir (Cymevene® sodium), a clinically approved anti-HCMV chemotherapeutic.
The substances dissolved (50 mM) in DMSO (dimethyl sulphoxide) are investigated on microtitre plates (96-well) in duplicate determinations (4 substances/plate). Toxic and cytostatic substance effects are additionally detected at the same time. After the appropriate substance dilutions (1:2) on the microtitre plate, a suspension of 50-100 HCMV-infected HELF cells and […] non-infected HELF cells in Eagle's MEM with 10% foetal calf serum is added to each well, and the plates are incubated at 37° C. in a CO2 incubator for several days. After this time, the cell lawn in the sub-stance-free virus controls, starting from 50-100 infectious centres, is completely destroyed by the cytopathogenic effect of the HCMV (100% CPE). After staining with Neutral Red and fixing with formalin/methanol, the plates are assessed with the aid of a projection microscope (plaque-viewer).
On the technique in general: Protection from cytopathic effect is a common read-out in antiviral testing.
As usually defined, the EC50 is the concentration needed to bring the measured effect to its halfway point. Read a high EC50 as lower potency in that assay. The compound `CN(C)c1cccc2c(S(=O)(=O)Nc3ccc(NC(=O)C(C)(C)CF)cc3)cccc12` [Example 13] gave an EC50 of 0.064 µM.
The same measure, in the same setting: in the case of `CN(C)c1cccc2c(S(=O)(=O)Nc3ccc(NC(=O)C(C)(C)CCl)cc3)cccc12` [Example 16] it was 0.028 µM.
Still for that read-out and setting: in the case of `CN(C)c1cccc2c(S(=O)(=O)Nc3ccc(NC(=O)C(C)(CO)CO)cc3)cccc12` [Example 24] it was 0.88 µM; in that of `CN(C)c1cccc2c(S(=O)(=O)Nc3ccc(NC(=O)C(C)(C)CN)cc3)cccc12` [Example 25], 0.64 µM.
